Drawing on patent US4341786A, “Pharmaceutical compositions and method of producing central alpha1 agonist activity utilizing octahydrobenzo[f]quinoline compounds” (SmithKline Corporation, priority 1981, dated 1982), this text covers EC50 for one molecule.

Where a name gives a salt, the structure may show the parent alone.

The term EC50 denotes the concentration needed to bring the measured effect to its halfway point. Read a low EC50 as greater potency.

The target of the assay is postjunctional alpha1 receptors. The experiment in a line: postjunctional alpha1 agonist activity (EC50), isolated segment of rabbit ear artery. To be noted: smooth muscle tension, dose producing 50% of the maximum response (norepinephrine). The source says: The assay procedure is described by Steinsland et al. J. Pharm. Exp. Ther. 184:346-356, 1973. Briefly, this test comprises sacrificing a white rabbit and removing the central ear artery. The artery is cannulated at both ends and placed in a perfusion chamber. The artery is simultaneously perfused intraluminally and superfused extraluminally with Krebs solution. The compound to be tested can be administered by means of either the intraluminal or extraluminal flow. The sympathetic nerve is excited at four minute intervals by field stimulation. The selective alpha1 agonist activity is measured as the ability to increase perfusion pressure (mm Hg.) without inhibiting response to sympathetic nerve stimulation.
A quantitation of postjunctional alpha1 agonist activity (EC50) is determined for compounds showing activity in the above test. This is accomplished by employing an isolated segment of rabbit ear artery. The segment is mounted in a chamber superfused with oxygenated Krebs solution. The segment is suspended between two tungsten wires, one attached to the chamber, the other to a force-displacement transducer so that smooth muscle tension can be measured directly. Before administration of the test drug, norepinephrine is administered in increasing concentration (10^-8 M to 3×10^-6 M) to determine maximum response of the artery. […]

In turn, `COc1ccc(OC)c2c1CCC1NCCCC21` (stereo not shown) [7,10-dimethoxy-1,2,3,4,4a,5,6,10-b-octahydro-benzo[f]quinoline hydrochloride] returned a half-maximal effective concentration (EC50) of 190 nM.
